According to ChEMBL document CHEMBL1129381, “Novel (R)-2-amino-5-fluorotetralins: dopaminergic antagonists and inverse agonists” (J Med Chem, 1996):

Columns and labels:
D(2) dopamine receptor [1] = target: T1, D(2) dopamine receptor (Homo sapiens, UniProt P14416); test: Hill coefficients for [3H]-raclopride binding to dopamine D2 receptor high-and low-affinity agonist states
D(2) dopamine receptor [2] = target: T1, D(2) dopamine receptor
D(3) dopamine receptor [3] = target: T2, D(3) dopamine receptor (Homo sapiens, UniProt P35462)
T2 sequence (P35462 whole entry): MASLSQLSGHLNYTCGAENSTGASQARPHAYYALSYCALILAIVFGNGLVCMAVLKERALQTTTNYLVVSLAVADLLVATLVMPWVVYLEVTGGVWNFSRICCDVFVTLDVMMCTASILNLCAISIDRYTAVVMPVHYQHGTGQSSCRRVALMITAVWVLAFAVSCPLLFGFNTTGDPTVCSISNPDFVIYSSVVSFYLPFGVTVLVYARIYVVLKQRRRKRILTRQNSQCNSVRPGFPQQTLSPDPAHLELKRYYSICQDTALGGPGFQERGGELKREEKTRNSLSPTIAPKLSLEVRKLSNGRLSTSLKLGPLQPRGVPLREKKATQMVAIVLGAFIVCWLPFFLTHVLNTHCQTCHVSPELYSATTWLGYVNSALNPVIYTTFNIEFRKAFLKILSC

[4] = target: T3, 5-hydroxytryptamine receptor 1A (Rattus norvegicus, UniProt P19327); test: Inhibition of [3H]8-OH-DPAT binding to 5-hydroxytryptamine 1A receptor
T3 sequence (P19327 whole entry): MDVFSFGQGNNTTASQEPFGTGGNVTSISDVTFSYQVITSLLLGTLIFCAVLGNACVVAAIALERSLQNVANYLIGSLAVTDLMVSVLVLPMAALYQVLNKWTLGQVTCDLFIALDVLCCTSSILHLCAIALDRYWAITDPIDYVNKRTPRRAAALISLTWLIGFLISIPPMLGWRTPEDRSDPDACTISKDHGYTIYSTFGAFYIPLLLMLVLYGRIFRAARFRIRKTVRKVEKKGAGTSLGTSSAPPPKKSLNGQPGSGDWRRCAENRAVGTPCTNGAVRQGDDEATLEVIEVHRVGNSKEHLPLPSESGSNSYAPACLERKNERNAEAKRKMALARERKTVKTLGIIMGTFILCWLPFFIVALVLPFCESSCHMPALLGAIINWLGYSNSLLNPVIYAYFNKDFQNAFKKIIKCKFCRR

D(3) dopamine receptor [5] = target: T2, D(3) dopamine receptor; remark: listed apart in the source
D(2) dopamine receptor [6] = target: T1, D(2) dopamine receptor; test: Inhibition of [3H]raclopride binding to Dopamine receptor D2
D(2) dopamine receptor [7] = target: T1, D(2) dopamine receptor; remark: listed apart in the source

T1 sequence (P14416 whole entry): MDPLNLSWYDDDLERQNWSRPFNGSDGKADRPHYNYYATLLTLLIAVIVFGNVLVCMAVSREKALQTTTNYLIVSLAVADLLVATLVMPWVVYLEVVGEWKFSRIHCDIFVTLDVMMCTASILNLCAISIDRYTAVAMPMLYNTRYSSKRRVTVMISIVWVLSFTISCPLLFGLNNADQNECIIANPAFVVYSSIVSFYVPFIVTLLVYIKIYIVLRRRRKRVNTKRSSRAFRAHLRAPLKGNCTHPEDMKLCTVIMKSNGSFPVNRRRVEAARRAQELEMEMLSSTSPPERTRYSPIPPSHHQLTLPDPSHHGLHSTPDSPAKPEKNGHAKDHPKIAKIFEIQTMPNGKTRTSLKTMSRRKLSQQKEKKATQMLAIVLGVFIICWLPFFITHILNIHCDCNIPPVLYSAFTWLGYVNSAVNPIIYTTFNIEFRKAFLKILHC

Row | Structure (SMILES) | nH (D(2) dopamine receptor [1]) | Ki (D(2) dopamine receptor [2]) [nM] | Ki (D(3) dopamine receptor [3]) [nM] | Ki [4] [nM] | nH (D(3) dopamine receptor [5]) | Ki (D(2) dopamine receptor [6]) [nM] | Ki (D(2) dopamine receptor [7]) [nM]
1 | CCCN(CCCCN1C(=O)CC2(CCCC2)CC1=O)[C@@H]1CCc2c(F)cccc2C1 | 0.87 | 4.94 | 0.251 | 0.246 | 0.92 | 16.9 | –
2 | Fc1cccc2c1CC[C@@H](NCc1ccccc1)C2 | 0.81 | 779 | 1050 | 494 | 0.88 | – | 2830
3 | O=C1CC2(CCCC2)CC(=O)N1CCCCN[C@@H]1CCc2c(F)cccc2C1 | 0.88 | 37 | 4.94 | 6.46 | 0.88 | 68.2 | –
4 | CCCN(CCC)[C@@H]1CCc2c(F)cccc2C1 | 0.89 | 26 | 8.62 | 30.2 | 1.03 | – | 201
5 | CCCN[C@@H]1CCc2c(F)cccc2C1 | 0.86 | 167 | 35.8 | 108 | 0.92 | – | 582
6 | CCCN(Cc1ccccc1)[C@@H]1CCc2c(F)cccc2C1 | 0.86 | 179 | 23.8 | 28.8 | 0.92 | – | 415
7 | CC(C)N[C@@H]1CCc2c(F)cccc2C1 | 0.88 | – | 1450 | 627 | 0.9 | – | 5940
8 | CCCN(C(C)C)[C@@H]1CCc2c(F)cccc2C1 | 0.94 | 1530 | 199 | 644 | 0.91 | – | 4720
9 | CCCCN[C@@H]1CCc2c(F)cccc2C1 | 0.93 | 254 | 158 | 440 | 0.79 | – | 790
10 | NCCc1ccc(O)c(O)c1 | 0.66 | – | – | – | – | – | –
11 | CCCCN(CCC)[C@@H]1CCc2c(F)cccc2C1 | 0.91 | 45.6 | 4.42 | 44.5 | 0.98 | – | 210
12 | N[C@@H]1CCc2c(F)cccc2C1 | 0.81 | 585 | 150 | 525 | 0.99 | – | 864
